ChEMBL document CHEMBL4483862, “Open-source discovery of chemical leads for next-generation chemoprotective antimalarials” (2018)

Tested on: Plasmodium berghei
Experiment: Luciferase/luciferin-expressing antifolate-resistant parasites were used to infect a culture of HepG2 cells that were pre-incubated with compounds. Infected hepatocytes emit light due to the luciferase reaction. Assay results are presented as the percent inhibition of light emission compared to control. […]
Type: functional
Conditions: sporozoite; for IC90: read-out: LUCIFERASE INFECTION ASSAY - IC90
[1] = read-out: LUCIFERASE INFECTION ASSAY - IC50

Row | Compound | IC90 [µM] | IC50 [1] [µM] | further results
1 | O=C(CCc1ccc(O)cc1)NNC(=S)Nc1ccc(Cl)c(Cl)c1 | > 8.59 |  | IC50 (PBLUC_HILL_SLOPE 3.89, PBLUC_R_SQUARED 0.475, read-out: LUCIFERASE INFECTION ASSAY - IC50): 5.88 µM
2 | CCOc1cc(C(=O)N(CC2CCCO2)C2CCS(=O)(=O)C2)cc(OCC)c1OCC (centres undefined) | > 10 | > 10 | 
3 | Oc1c(C(c2ccc(Cl)cc2Cl)N2CCOCC2)ccc2cccnc12 (centres undefined) | 8.77 | 4.36 | 
4 | CCc1cccc(CC)c1N(C(C)=O)c1nc(/C=C/C(=O)c2cc3ccccc3o2)cs1 | 6.49 |  | IC50 (FFLUC_HILL_SLOPE 3.93, FFLUC_R_SQUARED 0.771, PBLUC_HILL_SLOPE 5.3, PBLUC_R_SQUARED 0.865, read-out: LUCIFERASE INFECTION ASSAY - IC50): 4.29 µM
5 | CC(=O)c1c(C)cc(C)c(CNc2ccc(NC(=O)C3CC3)cc2C(F)(F)F)c1C | 4.59 |  | IC50 (HEPG2TOX_HILL_SLOPE 10.3, HEPG2TOX_R_SQUARED 0.233, PBLUC_HILL_SLOPE 1.48, PBLUC_R_SQUARED 0.914, read-out: LUCIFERASE INFECTION ASSAY - IC50): 1.03 µM
6 | Cc1ccc(-c2nc3cc(Br)cnc3nc2-c2ccc(C)cc2)cc1 | 6.85 |  | IC50 (HEPG2TOX_HILL_SLOPE 1.79, HEPG2TOX_R_SQUARED 0.907, PBLUC_HILL_SLOPE 4.08, PBLUC_R_SQUARED 0.409, read-out: LUCIFERASE INFECTION ASSAY - IC50): 4 µM
7 | Cc1nnsc1-c1onc(C)c1C(=O)NC(=O)Nc1cc(Cl)cc(Cl)c1 | 3.02 |  | IC50 (HEPG2TOX_HILL_SLOPE 1.43, HEPG2TOX_R_SQUARED 0.987, PBLUC_HILL_SLOPE 8.7, PBLUC_R_SQUARED 0.518, read-out: LUCIFERASE INFECTION ASSAY - IC50): 2.34 µM
8 | CCN(CC)CCn1c(NC(=O)c2cnc3c(cnn3C(C)C)c2)nc2ccccc21 | 6.55 |  | IC50 (PBLUC_HILL_SLOPE 2.78, PBLUC_R_SQUARED 0.504, read-out: LUCIFERASE INFECTION ASSAY - IC50): 2.97 µM
9 | C/C(=N\NC(=S)NC(C)(C)C)c1cc(F)cc(Cl)c1O | 4.66 |  | IC50 (FFLUC_HILL_SLOPE 2.86, FFLUC_R_SQUARED 0.466, HEPG2TOX_HILL_SLOPE 2.1, HEPG2TOX_R_SQUARED 0.731, PBLUC_HILL_SLOPE 9.8, PBLUC_R_SQUARED 0.522, read-out: LUCIFERASE INFECTION ASSAY - IC50): 3.72 µM
10 | CCn1c2ccccc2c2cc(/C=C(/C(=O)c3ccccc3)c3nc4ccccc4[nH]3)ccc21 | > 10 | 9.13 | 
11 | CCOC(=O)c1sc2c(c1C)C(c1ccccc1)C1C(=O)CC(C)(C)CC1=N2 (centres undefined) | 4.4 | 1.87 | 
12 | O=C(CN1CCC(Nc2ncnc3cc(Cl)ccc23)CC1)Nc1ccccc1 | 5.83 |  | IC50 (HEPG2TOX_HILL_SLOPE 1.03, HEPG2TOX_R_SQUARED 0.872, PBLUC_HILL_SLOPE 1.97, PBLUC_R_SQUARED 0.801, read-out: LUCIFERASE INFECTION ASSAY - IC50): 1.91 µM
13 | N=C(N)N/N=C/c1ccc(N(c2ccccc2)c2ccccc2)cc1 | 9.95 | 8.03 | 
14 | Cc1ccc(C(=O)NCc2ccc(-c3ccc(Cl)cc3)o2)cc1NC(=O)c1ccco1 | > 10 | > 10 | 
15 | O=C(C1CCCO1)N1CCn2c1nc1ccccc12 (centres undefined) | > 10 | > 10 | 
16 | Cc1ccc(S(=O)(=O)N(C)CC(=O)N(C)Cc2ccccc2OC(F)(F)F)cc1C | > 10 | > 10 | 
17 | O=C(Nc1ncccc1OCc1ccc(Cl)c(Cl)c1)c1cc(Cl)cc(Cl)c1 | > 7.46 |  | IC50 (FFLUC_HILL_SLOPE 11.8, FFLUC_R_SQUARED 0.202, PBLUC_HILL_SLOPE 16.7, PBLUC_R_SQUARED 0.189, read-out: LUCIFERASE INFECTION ASSAY - IC50): > 7.46 µM
18 | CCN(CC)CCNC(=O)c1c(C)oc2c1C(=O)c1ccccc1C2=O | 1.15 |  | IC50 (HEPG2TOX_HILL_SLOPE 5.67, HEPG2TOX_R_SQUARED 0.985, PBLUC_HILL_SLOPE 0.945, PBLUC_R_SQUARED 0.645, read-out: LUCIFERASE INFECTION ASSAY - IC50): 0.112 µM
19 | CCOC(=O)C1=C(C)N(S(=O)(=O)c2ccc(C)cc2)C(SC)=NC1c1ccccc1 (centres undefined) | > 7.42 | > 7.42 | 
20 | COc1cc(/C=N/NC(=O)c2cc3c(s2)CCC(C)C3)ccc1OC(=O)c1ccco1 (centres undefined) | > 10 | > 10 | 
21 | Cc1ccc(/C(C#N)=C/c2ccc(N(C)C)cc2)cc1 | 5.07 |  | IC50 (HEPG2TOX_HILL_SLOPE 1.36, HEPG2TOX_R_SQUARED 0.894, PBLUC_HILL_SLOPE 0.698, PBLUC_R_SQUARED 0.911, read-out: LUCIFERASE INFECTION ASSAY - IC50): 0.218 µM

Row | Compound | IC90 [µM] | IC50 [1] [µM] | further results
22 | Cc1ccccc1-c1cn2c(-c3ccc4ncccc4c3)cnc2cn1 | 0.015 |  | IC50 (HEPG2TOX_HILL_SLOPE 0.237, HEPG2TOX_R_SQUARED 0.401, PBLUC_HILL_SLOPE 15.7, PBLUC_R_SQUARED 0.693, read-out: LUCIFERASE INFECTION ASSAY - IC50): 0.0131 µM
23 | C=CCN(c1ccccc1)S(=O)(=O)c1cc(C(=O)NCC2(N3CCCCC3)CCCCC2)ccc1Cl | > 10 |  | IC50 (HEPG2TOX_HILL_SLOPE 0.94, HEPG2TOX_R_SQUARED 0.4, PBLUC_HILL_SLOPE 1.67, PBLUC_R_SQUARED 0.0797, read-out: LUCIFERASE INFECTION ASSAY - IC50): 5.22 µM
24 | O=C1CCCC2=C1C(c1ccccc1)C=C1c3cc4c(cc3CCN12)OCCCO4 (centres undefined) | > 8.26 | > 8.26 | 
25 | C=CCOc1cccc(/C=C2/C(=O)Nc3cc(Cl)ccc32)c1 | > 10 |  | IC50 (FFLUC_HILL_SLOPE 17.6, FFLUC_R_SQUARED 0.397, HEPG2TOX_HILL_SLOPE 7.7, HEPG2TOX_R_SQUARED 0.755, PBLUC_HILL_SLOPE 12.7, PBLUC_R_SQUARED 0.0397, read-out: LUCIFERASE INFECTION ASSAY - IC50): 9.6 µM
26 | CCN(CC)CCNc1cc(-c2cccs2)nc2ccccc12 | > 10.1 |  | IC50 (PBLUC_HILL_SLOPE 1.7, PBLUC_R_SQUARED 0.474, read-out: LUCIFERASE INFECTION ASSAY - IC50): 3.96 µM
27 | O=C(N/N=C(\Cc1ncc[nH]1)c1ccccc1)c1ccncc1 | 3.77 |  | IC50 (HEPG2TOX_HILL_SLOPE 3.38, HEPG2TOX_R_SQUARED 0.998, PBLUC_HILL_SLOPE 17.1, PBLUC_R_SQUARED 0.54, read-out: LUCIFERASE INFECTION ASSAY - IC50): 3.31 µM
28 | COc1ccccc1NS(=O)(=O)c1ccc(NNC(=S)Nc2cc(C)cc(C)c2)c([N+](=O)[O-])c1 | > 10 |  | IC50 (FFLUC_HILL_SLOPE 0.289, FFLUC_R_SQUARED 0.0194, HEPG2TOX_HILL_SLOPE 0.191, HEPG2TOX_R_SQUARED 0.347, PBLUC_HILL_SLOPE 3.05, PBLUC_R_SQUARED 0.49, read-out: LUCIFERASE INFECTION ASSAY - IC50): 5.73 µM
29 | CC1CCC2(CC1)NC(=O)N(Cc1ccc(C(=O)Nc3ccccc3)cc1)C2=O (centres undefined) | > 10 |  | IC50 (HEPG2TOX_HILL_SLOPE 0.925, HEPG2TOX_R_SQUARED 0.33, PBLUC_HILL_SLOPE 1.44, PBLUC_R_SQUARED 0.482, read-out: LUCIFERASE INFECTION ASSAY - IC50): 2.56 µM
30 | Nn1c(Cc2ccccc2F)nnc1SCC(=O)NCc1ccc2c(c1)OCO2 | > 10 | > 10 | 
31 | C=CCNc1nnc(SCC(=O)Nc2c(Cl)cc(Cl)cc2C(=O)O)s1 | > 10 | > 10 | 
32 | COC(=O)c1cccc(NC(S)=Nc2ccc(Cl)c(Cl)c2)c1 | > 9.29 | > 9.29 | 
33 | CCCOc1ccccc1NC(=O)COc1nnc2ccccn12 | > 10 | > 10 | 
34 | CCn1c(=O)c(=O)[nH]c2cc(C(=O)Nc3ccc(Oc4ccccc4)cc3)ccc21 | > 10 | > 10 | 
35 | Cc1ccc(-c2nnc3c(C(F)(F)F)nc4ccccc4n23)cc1 | > 10.1 |  | IC50 (HEPG2TOX_HILL_SLOPE 6.88, HEPG2TOX_R_SQUARED 0.907, PBLUC_HILL_SLOPE 7.21, PBLUC_R_SQUARED 0.0351, read-out: LUCIFERASE INFECTION ASSAY - IC50): 8.59 µM
36 | Cc1nc(SCc2nc(-c3cccs3)no2)c(C#N)c(C)c1C | 0.683 | 0.0298 | 
37 | Cc1nn(-c2ccccc2)c2sc(-c3[nH]nc(-c4ccccc4)c3-c3nc4ccccc4[nH]3)cc12 | 7.66 |  | IC50 (FFLUC_HILL_SLOPE 1.87, FFLUC_R_SQUARED 0.663, HEPG2TOX_HILL_SLOPE 0.372, HEPG2TOX_R_SQUARED 0.356, PBLUC_HILL_SLOPE 1.24, PBLUC_R_SQUARED 0.688, read-out: LUCIFERASE INFECTION ASSAY - IC50): 1.3 µM
38 | COc1cncc(-c2cncc(Nc3cccc(Cl)c3)c2)c1 | 9.85 |  | IC50 (PBLUC_HILL_SLOPE 20.7, PBLUC_R_SQUARED 0.436, read-out: LUCIFERASE INFECTION ASSAY - IC50): 8.86 µM
39 | COc1ccc(-n2c(C)cc(C(=O)COC(=O)[C@@H](NS(=O)(=O)c3ccc4c(c3)OCCO4)C(C)C)c2C)cc1 | > 10 | > 10 | 
40 | O=C(CC1S/C(=N\c2ccccn2)NC1=O)Nc1ccc(Cl)cc1 (centres undefined) | > 10 |  | IC50 (PBLUC_HILL_SLOPE 2.4, PBLUC_R_SQUARED 0.685, read-out: LUCIFERASE INFECTION ASSAY - IC50): 5.95 µM
41 | O=C(Nc1cc(Cl)cc(Cl)c1)c1cc(Cl)c(-n2cccc2)c(Cl)c1 | 4.35 |  | IC50 (FFLUC_HILL_SLOPE 1.91, FFLUC_R_SQUARED 0.0412, HEPG2TOX_HILL_SLOPE 16.8, HEPG2TOX_R_SQUARED 0.892, PBLUC_HILL_SLOPE 9.75, PBLUC_R_SQUARED 0.262, read-out: LUCIFERASE INFECTION ASSAY - IC50): 3.47 µM
42 | NC(=O)c1cccc(-c2ccc3ncc(-c4cccs4)n3n2)c1 | > 10 |  | IC50 (HEPG2TOX_HILL_SLOPE 0.701, HEPG2TOX_R_SQUARED 0.861, PBLUC_HILL_SLOPE 2.21, PBLUC_R_SQUARED 0.712, read-out: LUCIFERASE INFECTION ASSAY - IC50): 4.09 µM
